# Data from US20230049231A1 (priority 2019, published 2023).
# What was measured:
# [1] = molecular target: T1, Kv1.3 potassium channel (Homo sapiens, UniProt P22001); test: Kv1.3 potassium channel blocker activity, automated whole-cell patch clamp (Patchliner); type: cell-based
# T1 construct: expressed in transfected cells
# Protocol: This assay is used to evaluate the disclosed compounds' activities as Kv1.3 potassium channel blockers.
# CHO-K1 cells stably expressing Kv1.3 were grown in DMEM containing 10% heat-inactivated FBS, 1 mM sodium pyruvate, 2 mM L-glutamine and G418 (500 μg/ml). Cells were grown in culture flasks at 37° C. in a 5% CO2-humidified incubator.
# (§1) The cells were bathed in an extracellular solution containing 140 mM NaCl, 4 mM KCl, 2 mM CaCl2), 1 mM MgCl2, 5 mM glucose, and 10 mM HEPES; pH adjusted to 7.4 with NaOH; 295-305 mOsm. The internal solution contained 50 mM KCl, 10 mM NaCl, 60 mM KF, 20 mM EGTA, and 10 mM HEPES; pH adjusted to 7.2 with KOH; 285 mOsm. All compounds were dissolved in DMSO at 30 mM. Compound stock solutions were freshly diluted with external solution to concentrations of 30 nM, 100 nM, 300 nM, 1 μM, 3 μM, 10 μM, 30 μM and 100 μM. The highest content of DMSO (0.3%) was present in 100 μM.
# The currents were evoked by applying 100 ms depolarizing pulses from −90 mV (holding potential) to +40 mV were applied with 0.1 Hz frequency. Control (compound-free) and compound pulse trains for each compound concentration applied contained 20 pulses.
# 10-second breaks were used between pulse trains (see Table 2 below).
# Whole-cell current recordings and compound application were enabled by means of an automated patch clamp platform Patchliner (Nanion Technologies GmbH). EPC 10 patch clamp amplifier (HEKA Elektronik Dr. Schulze GmbH) along with Patchmaster software (HEKA Elektronik Dr. Schulze GmbH) was used for data acquisition. Data were sampled at 10 kHz without filtering. Passive leak currents were subtracted online using a P/4 procedure (HEKA Elektronik Dr. Schulze GmbH). Increasing compound concentrations were applied consecutively to the same cell without washouts in between. Total compound incubation time before the next pulse train was not longer than 10 seconds. Peak current inhibition was observed during compound equilibration.
# (§2) AUC and peak values were obtained with Patchmaster (HEKA Elektronik Dr. Schulze GmbH). To determine IC50, the last single pulse in the pulse train corresponding to a given compound concentration was used. Obtained AUC and peak values in the presence of compound were normalized to control values in the absence of compound. Using Origin (OridinLab), IC50 was derived from data fit to Hill equation: Icompound/Icontrol=(100−A)/(1+([compound]/IC50)nH)+A, where IC50 value is the concentration at which current inhibition is half-maximal, [compound] is the applied compound concentration, A is the fraction of current that is not blocked and nH is the Hill coefficient.
# [2] = molecular target: T2, hERG channel (Homo sapiens, UniProt Q12809); test: hERG electrophysiology, automated whole-cell patch clamp (Patchliner); type: cell-based
# T2 construct: expressed in transfected cells
# Protocol: This assay is used to evaluate the disclosed compounds' inhibition activities against the hERG channel.
# CHO-K1 cells stably expressing hERG were grown in Ham's F-12 Medium with glutamine containing 10% heat-inactivated FBS, 1% penicillin/streptomycin, hygromycin (100 μg/ml) and G418 (100 μg/ml). Cells were grown in culture flasks at 37° C. in a 5% CO2-humidified incubator.
# as §1
# The voltage protocol (see Table 3) was designed to simulate voltage changes during a cardiac action potential with a 300 ms depolarization to +20 mV (analogous to the plateau phase of the cardiac action potential), a repolarization for 300 ms to −50 mV (inducing a tail current) and a final step to the holding potential of −80 mV. The pulse frequency was 0.3 Hz. Control (compound-free) and compound pulse trains for each compound concentration applied contained 70 pulses.
# Whole-cell current recordings and compound application were enabled by means of an automated patch clamp platform Patchliner (Nanion). EPC 10 patch clamp amplifier (HEKA) along with Patchmaster software (HEKA Elektronik Dr. Schulze GmbH) was used for data acquisition. Data were sampled at 10 kHz without filtering. Increasing compound concentrations were applied consecutively to the same cell without washouts in between.
# as §2, with “PEAK” for “peak”, “IC50” for “IC50,”, “Icompound/Icontrol=(100-A)/(1+([compound]/IC50)nH)+A,” for “Icompound/Icontrol=(100−A)/(1+([compound]/IC50)nH)+A,”, “IC50” for “IC50 value”
# [3] = Kv1.3 potassium channel, whole-cell patch clamp
# [4] = hERG channel, whole-cell patch clamp
# T1 sequence (P22001 whole entry): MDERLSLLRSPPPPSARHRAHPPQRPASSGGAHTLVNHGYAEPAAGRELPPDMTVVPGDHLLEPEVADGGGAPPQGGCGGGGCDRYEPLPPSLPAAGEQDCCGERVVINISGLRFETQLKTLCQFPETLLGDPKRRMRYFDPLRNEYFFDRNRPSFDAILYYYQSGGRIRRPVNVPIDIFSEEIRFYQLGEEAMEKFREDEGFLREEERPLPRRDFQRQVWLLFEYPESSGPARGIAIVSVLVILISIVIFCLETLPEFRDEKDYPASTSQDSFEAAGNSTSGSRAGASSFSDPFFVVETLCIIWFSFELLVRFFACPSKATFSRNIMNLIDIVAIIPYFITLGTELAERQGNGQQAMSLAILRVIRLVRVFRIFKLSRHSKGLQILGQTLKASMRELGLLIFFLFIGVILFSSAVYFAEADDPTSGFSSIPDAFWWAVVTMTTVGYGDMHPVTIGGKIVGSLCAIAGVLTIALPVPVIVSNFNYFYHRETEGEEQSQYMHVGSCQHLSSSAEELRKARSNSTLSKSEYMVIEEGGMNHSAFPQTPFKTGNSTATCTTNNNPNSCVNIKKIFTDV
# T2 sequence (Q12809 whole entry): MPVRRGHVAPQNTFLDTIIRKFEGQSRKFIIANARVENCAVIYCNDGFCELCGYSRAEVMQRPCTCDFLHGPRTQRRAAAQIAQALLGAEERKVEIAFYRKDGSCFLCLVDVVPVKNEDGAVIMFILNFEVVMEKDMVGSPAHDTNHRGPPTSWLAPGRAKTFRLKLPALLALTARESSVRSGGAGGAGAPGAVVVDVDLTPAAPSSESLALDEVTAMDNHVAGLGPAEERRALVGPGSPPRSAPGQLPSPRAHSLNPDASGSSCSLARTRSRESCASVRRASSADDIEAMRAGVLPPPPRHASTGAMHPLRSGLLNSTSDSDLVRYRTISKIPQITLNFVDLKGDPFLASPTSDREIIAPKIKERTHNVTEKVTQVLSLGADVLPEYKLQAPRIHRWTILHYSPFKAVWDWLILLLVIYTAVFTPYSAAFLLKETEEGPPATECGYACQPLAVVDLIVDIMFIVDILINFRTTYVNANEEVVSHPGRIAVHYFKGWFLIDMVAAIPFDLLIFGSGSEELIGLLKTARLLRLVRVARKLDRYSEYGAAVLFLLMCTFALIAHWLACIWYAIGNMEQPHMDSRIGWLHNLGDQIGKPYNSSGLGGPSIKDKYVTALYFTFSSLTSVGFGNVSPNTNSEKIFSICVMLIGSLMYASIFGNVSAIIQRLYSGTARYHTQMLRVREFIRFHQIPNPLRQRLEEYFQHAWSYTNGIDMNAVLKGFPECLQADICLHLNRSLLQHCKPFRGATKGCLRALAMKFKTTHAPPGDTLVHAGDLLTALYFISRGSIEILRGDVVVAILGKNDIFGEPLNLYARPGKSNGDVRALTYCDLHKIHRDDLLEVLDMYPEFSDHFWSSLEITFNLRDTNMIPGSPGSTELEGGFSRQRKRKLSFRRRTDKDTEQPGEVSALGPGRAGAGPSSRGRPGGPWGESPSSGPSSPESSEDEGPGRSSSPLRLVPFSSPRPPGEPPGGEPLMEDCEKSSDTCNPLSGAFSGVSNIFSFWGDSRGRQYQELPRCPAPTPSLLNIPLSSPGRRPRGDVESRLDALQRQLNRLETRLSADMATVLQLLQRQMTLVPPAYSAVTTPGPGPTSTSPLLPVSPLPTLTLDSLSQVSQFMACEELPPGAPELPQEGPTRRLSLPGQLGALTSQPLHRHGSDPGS
smiles,measurement,setting,value
"O=C1CN(C2CC[C@@H](O)[C@H]2O)C[C@@H]2C[C@H](c3c(O)ccc(Cl)c3Cl)CN12 (relative stereo) [Compound 136, (7R,8aS)-7-(2,3-dichloro-6-hydroxyphenyl)-2-[(2S,3R)-rel-2,3-dihydroxycyclopentyl]-hexahydropyrrolo [1,2-a]pyrazin-4-one]",IC50,[1]; [3],< 1 µM
same,IC50,[2]; [4],> 30 µM
"O=C1CN([C@H]2COC[C@@H]2O)C[C@@H]2C[C@H](c3c(O)ccc(Cl)c3Cl)CN12 (relative stereo) [Compound 154, (7R,8aS)-7-(2,3-dichloro-6-hydroxyphenyl)-2-[(3S,4R)-rel-4-hydroxyoxolan-3-yl]-hexahydropyrrolo [1,2-a]pyrazin-4-one]",IC50,[1]; [3],< 1 µM
same,IC50,[2]; [4],> 30 µM
"O=C1CN([C@@H]2COC[C@H]2O)C[C@@H]2C[C@H](c3c(O)ccc(Cl)c3Cl)CN12 (relative stereo) [Compound 155, (7R,8aS)-7-(2,3-dichloro-6-hydroxyphenyl)-2-[(3R,4S)-rel-4-hydroxyoxolan-3-yl]-hexahydropyrrolo[1,2-a]pyrazin-4-one]",IC50,[1]; [3],< 1 µM
same,IC50,[2]; [4],> 30 µM
"O=C1CN([C@H]2CC[C@@H]2O)C[C@@H]2C[C@H](c3c(O)ccc(Cl)c3Cl)CN12 (relative stereo) [Compound 158, (7R,8aS)-7-(2,3-dichloro-6-hydroxyphenyl)-2-[(1R,2R)-rel-2-hydroxycyclobutyl]-hexahydropyrrolo[1,2-a]pyrazin-4-one]",IC50,[1]; [3],< 1 µM
same,IC50,[2]; [4],> 30 µM
"O=C1CN([C@@H]2CC[C@H]2O)C[C@@H]2C[C@H](c3c(O)ccc(Cl)c3Cl)CN12 (relative stereo) [Compound 159, (7R,8aS)-7-(2,3-dichloro-6-hydroxyphenyl)-2-[(1S,2S)-rel-2-hydroxycyclobutyl]-hexahydropyrrolo[1,2-a]pyrazin-4-one]",IC50,[1]; [3],< 1 µM
same,IC50,[2]; [4],> 30 µM
"C[C@H](O)[C@H](CO)N1CC(=O)N2C[C@@H](c3c(O)ccc(Cl)c3Cl)C[C@H]2C1 (relative stereo) [Compound 165, (7R,8aS)-7-(2,3-dichloro-6-hydroxyphenyl)-2-[(2S,3S)-rel-1,3-dihydroxybutan-2-yl]-hexahydropyrrolo[1,2-a]pyrazin-4-one]",IC50,[1]; [3],< 1 µM
same,IC50,[2]; [4],> 30 µM
"C[C@@H](O)[C@@H](CO)N1CC(=O)N2C[C@@H](c3c(O)ccc(Cl)c3Cl)C[C@H]2C1 (relative stereo) [Compound 166, (7R,8aS)-7-(2,3-dichloro-6-hydroxyphenyl)-2-[(2R,3R)-rel-1,3-dihydroxybutan-2-yl]-hexahydropyrrolo[1,2-a]pyrazin-4-one]",IC50,[1]; [3],< 1 µM
same,IC50,[2]; [4],> 30 µM
"O=C1C[C@H](O)[C@H](O)[C@@H]2C[C@H](c3c(O)ccc(Cl)c3Cl)CN12 (relative stereo) [Compound 225, (7S,8R)-rel-(2R, 8aS)-2-(2,3-dichloro-6-hydroxyphenyl)-7,8-dihydroxy-hexahydro-1H-indolizin-5-one]",IC50,[1]; [3],< 1 µM
same,IC50,[2]; [4],> 30 µM
"O=C1[C@@H](CO)OC[C@@H]2C[C@H](c3c(O)ccc(Cl)c3Cl)CCN12 (single isomer, unassigned) [Compound 52]",IC50,"[1]; CHO-K1 cells stably expressing Kv1.3, 100 ms pulses from -90 mV to +40 mV, 0.1 Hz",< 1 µM
same,IC50,"[2]; CHO-K1 cells stably expressing hERG, +20 mV 300 ms, -50 mV 300 ms tail current, 0.3 Hz",> 30 µM
"O=C1CN(C[C@@H](O)CO)C[C@@H]2C[C@H](c3c(O)ccc(Cl)c3Cl)CN12 (single isomer, unassigned) [Compound 114]",IC50,[1]; [3],< 1 µM
same,IC50,[2]; [4],> 30 µM
"C[C@H](CO)N1CC(=O)N2C[C@@H](c3c(O)ccc(Cl)c3Cl)C[C@H]2C1 (single isomer, unassigned) [Compound 116]",IC50,[1]; [3],< 1 µM
same,IC50,[2]; [4],> 30 µM
"COC[C@H](CO)N1CC(=O)N2C[C@@H](c3c(O)ccc(Cl)c3Cl)C[C@H]2C1 (single isomer, unassigned) [Compound 118]",IC50,[1]; [3],< 1 µM
same,IC50,[2]; [4],> 30 µM
"C[C@@H](C1CNC1)N1CC(=O)N2C[C@@H](c3c(O)ccc(Cl)c3Cl)C[C@H]2C1 (single isomer, unassigned) [Compound 137]",IC50,[1]; [3],< 1 µM
same,IC50,[2]; [4],> 30 µM
"N[C@H]1CC(=O)N2C[C@@H](c3c(O)ccc(Cl)c3Cl)C[C@H]2C1 (single isomer, unassigned) [Compound 189]",IC50,[1]; [3],< 1 µM
same,IC50,[2]; [4],> 30 µM
"N[C@@H]1CC(=O)N2C[C@@H](c3c(O)ccc(Cl)c3Cl)C[C@H]2C1 (single isomer, unassigned) [Compound 190]",IC50,[1]; [3],< 1 µM
same,IC50,[2]; [4],> 30 µM
"O=C1C[C@H](N2CC[C@@H](O)C2)C[C@@H]2C[C@H](c3c(O)ccc(Cl)c3Cl)CN12 (single isomer, unassigned) [Compound 191]",IC50,[1]; [3],< 1 µM
same,IC50,[2]; [4],< 30 µM
"O=C1C[C@@H](N2CC[C@@H](O)C2)C[C@@H]2C[C@H](c3c(O)ccc(Cl)c3Cl)CN12 (single isomer, unassigned) [Compound 192]",IC50,[1]; [3],< 1 µM
same,IC50,[2]; [4],> 30 µM
"O=C1C[C@H](N2CC[C@H](O)C2)C[C@@H]2C[C@H](c3c(O)ccc(Cl)c3Cl)CN12 (single isomer, unassigned) [Compound 193]",IC50,[1]; [3],< 1 µM
same,IC50,[2]; [4],> 30 µM
"O=C1C[C@@H](N2CC[C@H](O)C2)C[C@@H]2C[C@H](c3c(O)ccc(Cl)c3Cl)CN12 (single isomer, unassigned) [Compound 194]",IC50,[1]; [3],< 1 µM
same,IC50,[2]; [4],> 30 µM
"O=C1C[C@@H](N2CC(O)C2)C[C@@H]2C[C@H](c3c(O)ccc(Cl)c3Cl)CN12 (single isomer, unassigned) [Compound 196]",IC50,[1]; [3],< 1 µM
same,IC50,[2]; [4],> 30 µM
"O=C1C[C@H](N2CC(O)C2)C[C@@H]2C[C@H](c3c(O)ccc(Cl)c3Cl)CN12 (single isomer, unassigned) [Compound 197]",IC50,[1]; [3],< 1 µM
same,IC50,[2]; [4],> 30 µM
"CN[C@@H]1CC(=O)N2C[C@@H](c3c(O)ccc(Cl)c3Cl)C[C@H]2C1 (single isomer, unassigned) [Compound 198]",IC50,[1]; [3],< 1 µM
same,IC50,[2]; [4],> 30 µM
"CN[C@H]1CC(=O)N2C[C@@H](c3c(O)ccc(Cl)c3Cl)C[C@H]2C1 (single isomer, unassigned) [Compound 199]",IC50,[1]; [3],< 1 µM
same,IC50,[2]; [4],> 30 µM
"CN(C)[C@@H]1CC(=O)N2C[C@@H](c3c(O)ccc(Cl)c3Cl)C[C@H]2C1 (single isomer, unassigned) [Compound 200]",IC50,[1]; [3],< 1 µM
same,IC50,[2]; [4],< 10 µM
"CN(C)[C@H]1CC(=O)N2C[C@@H](c3c(O)ccc(Cl)c3Cl)C[C@H]2C1 (single isomer, unassigned) [Compound 201]",IC50,[1]; [3],< 1 µM
same,IC50,[2]; [4],< 10 µM
"O=C1C[C@@H](NCCO)C[C@@H]2C[C@H](c3c(O)ccc(Cl)c3Cl)CN12 (single isomer, unassigned) [Compound 202]",IC50,[1]; [3],< 1 µM
same,IC50,[2]; [4],> 30 µM
"O=C1C[C@H](NCCO)C[C@@H]2C[C@H](c3c(O)ccc(Cl)c3Cl)CN12 (single isomer, unassigned) [Compound 203]",IC50,[1]; [3],< 1 µM
same,IC50,[2]; [4],> 30 µM
"CN(CCO)[C@@H]1CC(=O)N2C[C@@H](c3c(O)ccc(Cl)c3Cl)C[C@H]2C1 (single isomer, unassigned) [Compound 204]",IC50,[1]; [3],< 1 µM
same,IC50,[2]; [4],> 30 µM
